From paper PMC8406801, “Naringenin Inhibits Platelet Activation and Arterial Thrombosis Through Inhibition of Phosphoinositide 3-Kinase and Cyclic Nucleotide Signaling” (Frontiers in Pharmacology, 2021)
Where “and” joins values, the source holds several entries; their conditions need not be identical. Equal values may be shown once.

Columns and labels:
[1] = system: PDE extracts prepared from rat PRP (cAMP hydrolysis); assay: Phosphodiesterase activity in platelet extracts, hydrolysis of cAMP (HPLC); format: biochemical; details: vehicle = 100%, single replicates
Protocol: The effects of naringenin on PDE activity were determined using high-performance liquid chromatography (HPLC) ([Hu et al., 2011]). Briefly, PRP was pelleted by centrifugation for 10 min at 900 × g and homogenized in PBS containing 0.1% Triton X-100 using an ultrasonic homogenizer. After centrifugation at 12,000 × g for 20 min at 4°C, the supernatant was subjected to PDE activity assay.
DMSO vehicle or different concentrations naringenin were added to assay buffer (137 mM NaCl, 2.7 mM KCl, 8.8 mM Na2HPO4, 1.5 mM KH2PO4, 1 mM CaCl2, 1 mM MgCl2, pH 7,4) containing cAMP or cGMP. The reaction was initiated by adding 30 μL PDE extracts prepared from rat PRP as described above. Some extracts were boiled for 3 min to inactivate PDE before addition. After incubation for 30 min at […], the reaction was terminated by boiling the mixture for 3 min. Subsequently, the mixture was cooled on ice followed by centrifugation at 12,000 × g for 20 min at 4°C. The supernatant was subjected cAMP or cGMP assay using HPLC. PDE activity was expressed as percentages of the hydrolysis of cAMP or cGMP.

[2] = system: PI3Kp110β; assay: Ex vivo immunoblotting of PI3Kp110β in ADP-stimulated PRP of treated rats; design: species or system rat; details: for PI3Kp110β / GAPDH (Fold to Control) / PI3Kp110β / GAPDH (raw data): ex vivo, Figure 8B
Protocol: (§1) Male SD rats were randomly divided into 5 groups with 6 rats in each group. […] Sixty minutes after the last sample treatment, blood was drawn from the abdominal aorta of rats into the siliconized vacutainers containing 1:9 (v/v) 3.8% sodium citrate. The collected blood was centrifuged at 100 × g for 10 min at room temperature to obtain PRP. […] The platelet counts of PRP were adjusted to 4×10^8 cells/mL using PPP. PRP was incubated for 5 min at 37°C and then stimulated by ADP (5 μM). The maximum platelet aggregation rate was determined as mentioned above.
(§2) For in vitro platelet aggregation, aliquots of washed platelets were preincubated with vehicle or various concentrations of naringenin for 5 min and stimulated with ADP (10 μmol/L) under stirring at 37°C for 5 min. For ex vivo platelet aggregation, PRP was incubated at 37°C for 5 min and stimulated with ADP (5 μmol/L) under stirring at 37 °C. The platelet aggregation was terminated by adding ethylenediaminetetraacetic acid (EDTA; 10 mM). Total protein was prepared using RIPA lysis buffer and protein content was determined by bicinchoninic acid (BCA) protein assay kit. Equal amounts of platelet proteins (30 μg) were separated on 10% SDS polyacrylamide gel electrophoresis (SDS-PAGE) and then transferred to poly vinylidene difluoride (PVDF) membranes and subjected to western blot. Blots were blocked with TBS-Tween 20 containing 5% BSA and probed with primary antibodies diluted in blocking solution at 4°C overnight followed by incubation with the corresponding HRP secondary antibodies. The protein bands were visualized using enhanced chemiluminescence (ECL).
(§3) Blood was collected and PRP was obtained after the last treatment. Platelet aggregation was induced by ADP (5 μmol/L) (A). Data are expressed as means ± SD (n = 6). After ADP stimulation, platelet proteins were then extracted and analyzed by immunoblotting using PI3Kp110β antibody (B) and phospho-specific antibodies such as Akt^Ser473 (C), Akt^Thr308 (D) and ERK1/2^Thr202/Tyr204 (E). Total level of GAPDH was measured on each sample as a loading control. The blots shown are representative of three separate experiments. The relative protein expression levels were quantified by ImageJ 1.47v software. The level of relative protein expression obtained with vehicle control was taken as 1. R represents the level of relative protein expression in resting platelets. Data are expressed as means ± SD (n = 3). *p < 0.05, **p < 0.01, ***p < 0.001 compared with the vehicle control group (Con).
(§4) To further investigate the antiplatelet mechanisms of naringenin ex vivo, several signaling molecules such as PI3Kp110β, Akt and ERK were detected. After oral administration of naringenin (200, 400, and 800 mg/kg) to rats for 7 days, rat PRP was prepared and stimulated by ADP (5 μmol/L), and platelets were lysed to determine protein phosphorylation levels using western blot.

[3] = system: ERK1/2 phosphorylation; assay: Ex vivo immunoblotting of phospho-ERK1/2 in ADP-stimulated PRP of treated rats; design: species or system rat; details: for p-ERK1/2 / t-ERK (Fold to Control) / p-ERK1/2 / t-ERK (raw data): ex vivo, Figure 8E
Protocol: as §1, §2, §3, §4

[4] = system: Akt Thr308 phosphorylation; assay: Immunoblotting of phospho-Akt (Thr308) in ADP-stimulated washed platelets; format: cell-based, rat; details: ADP 10 μmol/L, single replicates; for p-Akt Thr308 / t-Akt: raw data
Protocol: as §2
(§5) FIGURE 4 Naringenin inhibits PI3K-mediated signaling in ADP-induced platelets. Washed rat platelets were preincubated without or with naringenin at 37°C for 5 min, and then stimulated with ADP (10 μmol/L) under stirring for 5 min. Platelet proteins were then extracted and analyzed by immunoblotting using PI3Kp110β antibody (A) and phospho-specific antibodies such as Akt^Ser473 (B), Akt^Thr308 (C), ERK1/2^Thr202/Tyr204 (D) and GSK3β^Ser9 (E). Total level of GAPDH was measured on each sample as a loading control. The blots shown are representative of three separate experiments. The relative protein expression levels were quantified by ImageJ 1.47v software. The level of relative protein expression obtained with vehicle control (0 μM) was taken as 1. R represents the level of relative protein expression in resting platelets. Data are expressed as means ± SD (n = 3). *p < 0.05, **p < 0.01, ***p < 0.001 compared with the vehicle control group.

[5] = system: ERK1/2 phosphorylation; assay: Immunoblotting of phospho-ERK1/2 (Thr202/Tyr204) in ADP-stimulated washed platelets; format: cell-based, rat; details: ADP 10 μmol/L, single replicates; for p-ERK1/2 / t-ERK: raw data
Protocol: as §2, §5

[6] = rats, oral 200, 400, and 800 mg/kg for 7 days, ADP 5 μmol/L

O=C1C[C@@H](c2ccc(O)cc2)Oc2cc(O)cc(O)c21 [Naringenin]
PDE activity (%) ([1]; 100 μM): 78.12% and 75.15% and 93.45%
PDE activity (%) ([1]; 200 μM): 76.39% and 84.94% and 63.29%
PDE activity (%) ([1]; 400 μM): 79.01% and 85.41% and 68.34%
PDE activity (%) ([1]; 800 μM): 43.72% and 69.43% and 76.24%
PI3Kp110β / GAPDH (Fold to Control) ([2]; naringenin 200mg/kg): 0.9111 and 0.9256 and 1.0697
PI3Kp110β / GAPDH (raw data) ([2]; naringenin 200mg/kg): 0.4465 and 0.4536 and 0.5241
PI3Kp110β / GAPDH (Fold to Control) ([2]; naringenin 400mg/kg): 0.7818 and 0.8725 and 1.0518
PI3Kp110β / GAPDH (raw data) ([2]; naringenin 400mg/kg): 0.3831 and 0.4275 and 0.5154
PI3Kp110β / GAPDH (Fold to Control) ([2]; naringenin 800mg/kg): 0.6930 and 0.8263 and 0.7645
PI3Kp110β / GAPDH (raw data) ([2]; naringenin 800mg/kg): 0.3396 and 0.4049 and 0.3746
expression of PI3Kp110β in rat PRP ex vivo [2, 6]: only modest changes
p-ERK1/2 / t-ERK (Fold to Control) ([3]; naringenin 200mg/kg): 0.4913 and 0.9007 and 0.8159
p-ERK1/2 / t-ERK (raw data) ([3]; naringenin 200mg/kg): 0.4317 and 0.7915 and 0.7170
p-ERK1/2 / t-ERK (Fold to Control) ([3]; naringenin 800mg/kg): 0.4112 and 0.5367 and 0.7060
p-ERK1/2 / t-ERK (raw data) ([3]; naringenin 800mg/kg): 0.3613 and 0.4716 and 0.6204
phosphorylation of ERK in rat PRP ex vivo [3, 6]: significantly suppressed
p-Akt Thr308 / t-Akt ([4]; 100 μM): 0.1089 and 0.0807 and 0.1359
p-Akt Thr308 / t-Akt (Fold to ADP only) ([4]; 100 μM): 0.3238 Fold to ADP only and 0.2400 Fold to ADP only and 0.4039 Fold to ADP only
p-Akt Thr308 / t-Akt ([4]; 200 μM): 0.0912 and 0.0481 and 0.0944
p-Akt Thr308 / t-Akt (Fold to ADP only) ([4]; 200 μM): 0.2711 Fold to ADP only and 0.1429 Fold to ADP only and 0.2806 Fold to ADP only
p-Akt Thr308 / t-Akt ([4]; 400 μM): 0.0712 and 0.0237 and 0.0830
p-Akt Thr308 / t-Akt (Fold to ADP only) ([4]; 400 μM): 0.2116 Fold to ADP only and 0.0703 Fold to ADP only and 0.2468 Fold to ADP only
p-Akt Thr308 / t-Akt ([4]; 800 μM): 0.0216 and 0.0199 and 0.0438
p-Akt Thr308 / t-Akt (Fold to ADP only) ([4]; 800 μM): 0.0641 Fold to ADP only and 0.0591 Fold to ADP only and 0.1303 Fold to ADP only
p-ERK1/2 / t-ERK ([5]; 100 μM): 0.3358 and 0.4551 and 0.3494
p-ERK1/2 / t-ERK (Fold to ADP only) ([5]; 100 μM): 0.4798 Fold to ADP only and 0.6502 Fold to ADP only and 0.4991 Fold to ADP only
p-ERK1/2 / t-ERK ([5]; 200 μM): 0.2390 and 0.3446 and 0.2653
p-ERK1/2 / t-ERK (Fold to ADP only) ([5]; 200 μM): 0.3414 Fold to ADP only and 0.4923 Fold to ADP only and 0.3790 Fold to ADP only
p-ERK1/2 / t-ERK ([5]; 400 μM): 0.0291 and 0.2751 and 0.1193
p-ERK1/2 / t-ERK (Fold to ADP only) ([5]; 400 μM): 0.0416 Fold to ADP only and 0.3930 Fold to ADP only and 0.1704 Fold to ADP only
p-ERK1/2 / t-ERK ([5]; 800 μM): 0.0106 and 0.1491 and 0.1406
p-ERK1/2 / t-ERK (Fold to ADP only) ([5]; 800 μM): 0.0152 Fold to ADP only and 0.2129 Fold to ADP only and 0.2008 Fold to ADP only
